Values after ≈ are worked out from the molar mass of the structure shown. Active and inactive are the calls of the source. The rule behind the calls is not given here.
Columns and labels:
[1] = Antiinflammatory activity in mouse splenocytes assessed as inhibition of LPS-induced IL-6 production at 12 uM preincubated for 2 hrs prior to LPS challenge by sandwich ELISA; type: functional; conditions: Splenocyte
[2] = Antiinflammatory activity in mouse splenocytes assessed as inhibition of LPS-induced IL-6 production at 50 uM preincubated for 2 hrs prior to LPS challenge by sandwich ELISA; type: functional; conditions: Splenocyte
[3] = tested on: Streptococcus pyogenes; test: Antibacterial activity against Streptococcus pyogenes ATCC 700294 by CLSI broth microdilution method; type: functional
[4] = biological target: T1, Cytochrome P450 3A4 (Homo sapiens, UniProt P08684)
Description: Inhibition of human recombinant CYP3A4 using 7-BQ as substrate preincubated for 5 to 10 mins before substrate addition

[5] = Antiinflammatory activity in mouse splenocytes assessed as inhibition of LPS-induced IL-6 production in mouse splenocytes at 25 uM preincubated for 2 hrs prior to LPS challenge by sandwich ELISA; type: functional; conditions: Splenocyte
[6] = Cytotoxicity against human THP1 cells assessed as cell viability at 50 uM after 24 hrs by MTT assay; type: cell-based, THP-1; conditions: read-out: Activity
[7] = biological target: T1, Cytochrome P450 3A4; remark: listed apart in the source
Description: Inhibition of human recombinant CYP3A4 using DEF as substrate preincubated for 5 to 10 mins before substrate addition

[8] = tested on: Streptococcus pneumoniae; test: Antibacterial activity against Streptococcus pneumoniae ATCC 49619 by CLSI broth microdilution method; type: functional
[9] = tested on: Moraxella catarrhalis; test: Antibacterial activity against Moraxella catarrhalis ATCC 23246 by CLSI broth microdilution method; type: functional
[10] = tested on: Haemophilus influenzae; test: Antibacterial activity against Haemophilus influenzae ATCC 49247 by CLSI broth microdilution method; type: functional
[11] = tested on: Staphylococcus aureus; test: Antibacterial activity against Staphylococcus aureus ATCC 13709 by CLSI broth microdilution method; type: functional
[12] = Cmax in cystic fibrosis patient blood at 500 mg; type: ADME, organism-based; parameters: dose 500 mg; conditions: human, whole blood
[13] = Cmax in lung cancer patient serum at 2 gram, po qd; type: ADME, organism-based; parameters: route oral; conditions: human
[14] = Cmax in lung cancer patient epithelial lining fluid at 2 gram, po qd; type: ADME, organism-based; parameters: route oral; conditions: human
[15] = tested on: Mus musculus; test: Antiinflammatory activity in BALB/cJ mouse assessed as decrease in LPS-induced neutrophil number in bronchoalveolar lavage fluid at 200 mg/kg, ip administered 2 hrs prior to LPS challenge measured after 24 hrs post LPS challenge; type: functional, organism-based; parameters: dose 200 mg/kg; conditions: Lung
[16] = Cmax in cystic fibrosis patient plasma at 500 mg; type: ADME, organism-based; parameters: dose 500 mg; conditions: human
[17] = tested on: Mus musculus; test: Antiinflammatory activity in BALB/cJ mouse assessed as decrease in LPS-induced total cell number in bronchoalveolar lavage fluid at 200 mg/kg, ip administered 2 hrs prior to LPS challenge measured after 24 hrs post LPS challenge; type: functional, organism-based; parameters: dose 200 mg/kg; conditions: Lung
[18] = biological target: Transcription factor Jun (Mus musculus) (UniProt P05627); test: Inhibition of AP1-mediated mediated IL-1beta production in LPS-induced mouse pulmonary neutrophila model
Sequence of Transcription factor Jun (Mus musculus) (P05627 whole entry): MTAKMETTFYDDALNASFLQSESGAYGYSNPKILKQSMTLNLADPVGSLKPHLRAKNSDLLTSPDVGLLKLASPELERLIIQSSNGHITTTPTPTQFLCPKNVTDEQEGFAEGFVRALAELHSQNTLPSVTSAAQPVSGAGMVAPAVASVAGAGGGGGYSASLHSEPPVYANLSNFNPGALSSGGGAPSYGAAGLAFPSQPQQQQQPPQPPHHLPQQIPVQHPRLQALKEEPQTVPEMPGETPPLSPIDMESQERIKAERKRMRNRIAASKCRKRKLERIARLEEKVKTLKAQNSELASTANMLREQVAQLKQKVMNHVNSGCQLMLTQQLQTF

T1 sequence (P08684 whole entry): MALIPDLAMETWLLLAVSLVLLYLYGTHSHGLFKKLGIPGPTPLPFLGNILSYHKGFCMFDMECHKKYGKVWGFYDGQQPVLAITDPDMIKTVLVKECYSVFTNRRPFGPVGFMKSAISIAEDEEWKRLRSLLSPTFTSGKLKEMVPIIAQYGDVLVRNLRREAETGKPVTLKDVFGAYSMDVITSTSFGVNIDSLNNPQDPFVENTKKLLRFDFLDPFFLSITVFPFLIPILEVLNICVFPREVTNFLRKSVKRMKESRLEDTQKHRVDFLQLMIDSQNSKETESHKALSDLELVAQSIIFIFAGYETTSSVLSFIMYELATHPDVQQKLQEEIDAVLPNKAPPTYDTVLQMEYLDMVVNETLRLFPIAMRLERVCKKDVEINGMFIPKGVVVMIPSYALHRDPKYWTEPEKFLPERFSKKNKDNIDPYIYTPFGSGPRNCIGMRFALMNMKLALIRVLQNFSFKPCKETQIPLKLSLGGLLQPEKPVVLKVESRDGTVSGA

Structure (SMILES)	MIC [3] [µg/mL]	IC50 [4] [µM]	IC50 [7] [µM]	inhibition at 12 µM [1] [%]	inhibition at 50 µM [2] [%]	inhibition at 25 µM [5] [%]	viability at 24 h, 50 µM [6] [%]	also measured
CC[C@H]1OC(=O)[C@H](C)[C@@H](O[C@H]2C[C@@](C)(OC)[C@@H](O)[C@H](C)O2)[C@H](C)[C@@H](O[C@@H]2O[C@H](C)C[C@H]3[C@H]2O/C(=N/c2ccc(OC)cc2)N3C)[C@](C)(OC)C[C@@H](C)C(=O)N[C@H](C)[C@@H](O)[C@]1(C)O	> 64	4.7	0.7	39	71	44	6	
CC[C@H]1OC(=O)[C@H](C)[C@@H](O[C@H]2C[C@@](C)(OC)[C@@H](O)[C@H](C)O2)[C@H](C)[C@@H](O[C@@H]2O[C@H](C)C[C@H]3[C@H]2O/C(=N/Cc2ccccc2)N3C)[C@](C)(OC)C[C@@H](C)NC(=O)[C@H](C)[C@@H](O)[C@]1(C)O								MIC [8]: 1 µg/mL (≈ 1.16 µM)
CC[C@H]1OC(=O)[C@H](C)[C@@H](O[C@H]2C[C@@](C)(OC)[C@@H](O)[C@H](C)O2)[C@H](C)[C@@H](O[C@@H]2O[C@H](C)C[C@H]3[C@H]2O/C(=N\C(C)C)N3C)[C@](C)(OC)C[C@@H](C)NC(=O)[C@H](C)[C@@H](O)[C@]1(C)O	> 64	> 10	1	45	67	55	0	
CC[C@H]1OC(=O)[C@H](C)[C@@H](O[C@H]2C[C@@](C)(OC)[C@@H](O)[C@H](C)O2)[C@H](C)[C@@H](O[C@@H]2O[C@H](C)C[C@H]3[C@H]2O/C(=N/C(C)C)N3C)[C@](C)(OC)C[C@@H](C)N(C)C[C@H](C)[C@@H](O)[C@]1(C)O								MIC [8]: 1 µg/mL (≈ 1.23 µM)
CC[C@H]1OC(=O)[C@H](C)[C@@H](O[C@H]2C[C@@](C)(OC)[C@@H](O)[C@H](C)O2)[C@H](C)[C@@H](O[C@@H]2O[C@H](C)C[C@H]3[C@H]2O/C(=N\C(C)C)N3C)[C@](C)(O)C[C@@H](C)C(=O)[C@H](C)[C@@H](O)[C@]1(C)O	> 64			61	94	81	0	
CC[C@H]1OC(=O)[C@H](C)[C@@H](O[C@H]2C[C@@](C)(OC)[C@@H](O)[C@H](C)O2)[C@H](C)[C@@H](O[C@@H]2O[C@H](C)C[C@H]3[C@H]2O/C(=N/Cc2ccccc2)N3C)[C@](C)(O)C[C@@H](C)CN(C)[C@H](C)[C@@H](O)[C@]1(C)O								MIC [8]: 1 µg/mL (≈ 1.18 µM)
CC[C@H]1OC(=O)[C@H](C)[C@@H](O[C@H]2C[C@@](C)(OC)[C@@H](O)[C@H](C)O2)[C@H](C)[C@@H](O[C@@H]2O[C@H](C)C[C@H]3[C@H]2O/C(=N/C(C)C)N3C)[C@@](C)(OC)C/C(C)=C2/O[C@@]1(C)C=C2C								MIC [9]: 8 µg/mL (≈ 10.5 µM)
CC/N=C1/O[C@H]2[C@H](O[C@@H]3[C@@H](C)[C@H](O[C@H]4C[C@@](C)(OC)[C@@H](O)[C@H](C)O4)[C@@H](C)C(=O)O[C@H](CC)[C@@]4(C)OC5(O[C@@]3(C)C[C@H]5C)[C@H](C)[C@@H]4C)O[C@H](C)C[C@@H]2N1C								Activity [8]: Active; Activity [10]: Active; Activity [11]: Active; Activity [3]: Active; Activity [9]: Active
CC/N=C1\O[C@H]2[C@H](O[C@@H]3[C@@H](C)[C@H](O[C@H]4C[C@@](C)(OC)[C@@H](O)[C@H](C)O4)[C@@H](C)C(=O)O[C@H](CC)[C@@](C)(O)[C@H](O)[C@@H](C)C(=O)[C@H](C)C[C@@]3(C)OC)O[C@H](C)C[C@@H]2N1C	> 64	2.9		55	73	64	0	
CC[C@H]1OC(=O)[C@H](C)[C@@H](O[C@H]2C[C@@](C)(OC)[C@@H](O)[C@H](C)O2)[C@H](C)[C@@H](O[C@@H]2O[C@H](C)C[C@H]3[C@H]2O/C(=N\C(C)(C)C)N3C)[C@](C)(OC)C[C@@H](C)C(=O)N[C@H](C)[C@@H](O)[C@]1(C)O	> 64			52	86	62	0	
CC[C@H]1OC(=O)[C@H](C)[C@@H](O[C@H]2C[C@@](C)(OC)[C@@H](O)[C@H](C)O2)[C@H](C)[C@@H](O[C@@H]2O[C@H](C)C[C@H]3[C@H]2O/C(=N\CCCSC)N3C)[C@](C)(OC)C[C@@H](C)C(=O)N[C@H](C)[C@@H](O)[C@]1(C)O	> 64	> 10	1.33	36	67	48	0	
CC[C@H]1OC(=O)[C@H](C)[C@@H](O[C@H]2C[C@@](C)(OC)[C@@H](O)[C@H](C)O2)[C@H](C)[C@@H](O[C@@H]2O[C@H](C)C[C@H]3[C@H]2O/C(=N\CCCN(C)C)N3C)[C@](C)(OC)C[C@@H](C)C(=O)[C@H](C)[C@@H](O)[C@]1(C)O	> 64	8	0.7	55	74	62	0	
CC/N=C1/O[C@H]2[C@H](O[C@@H]3[C@@H](C)[C@H](O[C@H]4C[C@@](C)(OC)[C@@H](O)[C@H](C)O4)[C@@H](C)C(=O)O[C@H](CC)[C@]4(C)C=C(C)/C(=C(/C)C[C@]3(C)OC)O4)O[C@H](C)C[C@@H]2N1C								MIC [9]: 8 µg/mL (≈ 10.7 µM)
CC[C@H]1OC(=O)[C@H](C)[C@@H](O[C@H]2C[C@@](C)(OC)[C@@H](O)[C@H](C)O2)[C@H](C)[C@@H](O[C@@H]2O[C@H](C)C[C@H](N(C)C)[C@H]2O)[C@](C)(O)C[C@@H](C)CN(C)[C@H](C)[C@@H](O)[C@]1(C)O [AZITHROMYCIN]	< 0.125			61	84	74	0	MIC [8]: < 0.125 µg/mL; MIC [10]: 2 µg/mL (≈ 2.67 µM); Cmax [12]: 2010 ng/mL; Cmax [13]: 940 ng/mL; Cmax [14]: 3200 ng/mL; MIC [11]: 0.5 µg/mL (≈ 0.668 µM); Activity [15]: Active; MIC [9]: < 0.125 µg/mL; Cmax [16]: 670 ng/mL; Activity [17]: Active; inhibition [18]: Active
CC[C@H]1OC(=O)[C@H](C)[C@@H](O[C@H]2C[C@@](C)(OC)[C@@H](O)[C@H](C)O2)[C@H](C)[C@@H](O[C@@H]2O[C@H](C)C[C@H]3[C@H]2O/C(=N/Cc2ccccc2)N3C)[C@@](C)(OC)C/C(C)=C2/O[C@@]1(C)C=C2C								MIC [11]: 8 µg/mL (≈ 9.84 µM)
CC[C@H]1OC(=O)[C@H](C)[C@@H](O[C@H]2C[C@@](C)(OC)[C@@H](O)[C@H](C)O2)[C@H](C)[C@@H](O[C@@H]2O[C@H](C)C[C@H]3[C@H]2O/C(=N/c2cccc4ccccc24)N3C)[C@](C)(O)C[C@@H](C)CN(C)[C@H](C)[C@@H](O)[C@]1(C)O								MIC [8]: 1 µg/mL (≈ 1.13 µM)

Further lines, with some results ahead:

MIC [3] [µg/mL]	IC50 [4] [µM]	IC50 [7] [µM]	Structure (SMILES)	inhibition at 12 µM [1] [%]	inhibition at 50 µM [2] [%]	inhibition at 25 µM [5] [%]	viability at 24 h, 50 µM [6] [%]	also measured
> 64	5.7	0.5	CC/N=C1\O[C@H]2[C@H](O[C@@H]3[C@@H](C)[C@H](O[C@H]4C[C@@](C)(OC)[C@@H](O)[C@H](C)O4)[C@@H](C)C(=O)O[C@H](CC)[C@@](C)(O)[C@H](O)[C@@H](C)C(=O)[C@H](C)C[C@@]3(C)O)O[C@H](C)C[C@@H]2N1C	70	86	80	0	
> 64	> 10	7.9	CC/N=C1\O[C@H]2[C@H](O[C@@H]3[C@@H](C)[C@H](O[C@H]4C[C@@](C)(OC)[C@@H](O)[C@H](C)O4)[C@@H](C)C(=O)O[C@H](CC)[C@@](C)(O)[C@H](O)[C@@H](C)N(C)C[C@H](C)C[C@@]3(C)O)O[C@H](C)C[C@@H]2N1C	86	99	96	0	Activity [15]: Active; Activity [17]: Active
